Measured values reported in US20180214428A1, “3-(1H-INDOL-2-YL)-1H-PYRAZOLO[3,4-B]PYRIDINES AND THERAPEUTIC USES THEREOF” (Samumed, LLC, priority 2015, published 2018).
pEC50: −log10 of the molar value.

Key:
[1] = test system: primary human fibroblasts derived from IPF patients (LL29 cells); test: Inhibition of the fibrotic process: αSMA staining in TGF-β1 treated LL29 fibroblasts; format: cell-based; conditions: for pEC50: TGF-β1 20 ng/mL, 4 days, % αSMA positive cells; for inhibition at 10 µM: read-out: percent inhibition at 10 μM
Summary of the method: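 IPF patient-derived LL29 fibroblasts in 1% FBS medium got compound (11-point, 10 μM to 1.87 nM, 0.1% DMSO) plus TGF-β1 20 ng/mL, 4 days at 37° C. αSMA-positive live cells (SYTOX-excluded) were imaged, normalized to TGF-β1 controls and fitted for EC50; % inhibition at 10 μM given when EC50 >10 μM.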

IL-6 = IL-6 inhibition in LPS-stimulated THP-1 monocytes (HTRF); format: cell-based, human; conditions: THP-1 cells; for pEC50: 500 ng/mL LPS, 22 h, HTRF IL-6 readout, 10-point dose-response from 10 μM; for inhibition at 10 µM: LPS stimulated, given only where EC50 >10 μM, top concentration 10 μM, read-out: percentage in parentheses beside EC50 >10 (IL-6 inhibition)
Summary of the method: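 THP-1 cells serum-reduced (1% FBS, 24 h), then 5000 cells/well preincubated 2 h with compound (10-point 1:3 series from 10 μM, 0.1% DMSO) before 500 ng/mL LPS for 22 h at 37 °C. Secreted IL-6 quantified by HTRF 665/620 ratio; DMSO-normalised duplicates fitted to four-parameter EC50; above 10 μM, % inhibition at 10 μM given.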

[2] = Homo sapiens, Fibroblast, at 10 μM, given for EC50 of >10 μM, TGF-β1, αSMA

CC(C)(C)CC(=O)Nc1cncc(-c2cnc3[nH]nc(-c4cc5ccccc5[nH]4)c3c2)c1 [Compound 242, N-(5-(3-(1H-Indol-2-yl)-1H-pyrazolo[3,4-b]pyridin-5-yl)pyridin-3-yl)-3,3-dimethylbutanamide]
pEC50 ([1]; Homo sapiens, Fibroblast, 96 h): < 5.00
inhibition at 10 µM [1, 2]: 0%
pEC50 (IL-6; Homo sapiens): 6.52

CCCC(=O)Nc1cncc(-c2cnc3[nH]nc(-c4cc5ccccc5[nH]4)c3c2)c1 [Compound 243, N-(5-(3-(1H-Indol-2-yl)-1H-pyrazolo[3,4-b]pyridin-5-yl)pyridin-3-yl) butyramide]
pEC50 ([1]; Homo sapiens, Fibroblast, 96 h): 6.68
pEC50 (IL-6; Homo sapiens): 5.68

O=C(Nc1cncc(-c2cnc3[nH]nc(-c4cc5ccccc5[nH]4)c3c2)c1)C1CCCCC1 [Compound 249, N-(5-(3-(1H-Indol-2-yl)-1H-pyrazolo[3,4-b]pyridin-5-yl)pyridin-3-yl) cyclohexanecarboxamide]
pEC50 ([1]; Homo sapiens, Fibroblast, 96 h): < 5.00
inhibition at 10 µM [1, 2]: 0%
pEC50 (IL-6; Homo sapiens): < 5.00
inhibition at 10 µM (IL-6; Homo sapiens): 14.2%

c1ccc(CNCc2cncc(-c3cnc4[nH]nc(-c5cc6ccccc6[nH]5)c4c3)c2)cc1 [Compound 250, 1-(5-(3-(1H-Indol-2-yl)-1H-pyrazolo[3,4-b]pyridin-5-yl)pyridin-3-yl)-N-benzylmethanamine]
pEC50 ([1]; Homo sapiens, Fibroblast, 96 h): 5.53
pEC50 (IL-6; Homo sapiens): 5.40

CC(C)(C)C(=O)Nc1cncc(-c2cnc3[nH]nc(-c4cc5c(-c6ccoc6)cccc5[nH]4)c3c2)c1 [Compound 290, N-(5-(3-(4-(Furan-3-yl)-1H-indol-2-yl)-1H-pyrazolo[3,4-b]pyridin-5-yl)pyridin-3-yl)pivalamide]
pEC50 ([1]; Homo sapiens, Fibroblast, 96 h): < 5.00
inhibition at 10 µM [1, 2]: 43.3%
pEC50 (IL-6; Homo sapiens): < 5.00
inhibition at 10 µM (IL-6; Homo sapiens): 31.2%

FC1(F)CCN(Cc2cncc(-c3cnc4[nH]nc(-c5cc6c(-c7ccoc7)cccc6[nH]5)c4c3)c2)C1 [Compound 308, 5-(5-((3,3-Difluoropyrrolidin-1-yl)methyl)pyridin-3-yl)-3-(4-(furan-3-yl)-1H-indol-2-yl)-1H-pyrazolo[3,4-b]pyridine]
pEC50 ([1]; Homo sapiens, Fibroblast, 96 h): 5.49
pEC50 (IL-6; Homo sapiens): 5.15

CC(C)CC(=O)Nc1cncc(-c2cnc3[nH]nc(-c4cc5c(-c6cc(F)cc(NCCN(C)C)c6)cccc5[nH]4)c3c2)c1 [Compound 424, N-(5-(3-(4-(3-((2-(Dimethylamino)ethyl)amino)-5-fluorophenyl)-1H-indol-2-yl)-1H-pyrazolo[3,4-b]pyridin-5-yl)pyridin-3-yl)-3-methylbutanamide]
pEC50 ([1]; Homo sapiens, Fibroblast, 96 h): 6.46
pEC50 (IL-6; Homo sapiens): 6.18

CN(C)CCNc1cc(F)cc(-c2cccc3[nH]c(-c4n[nH]c5ncc(-c6cncc(N)c6)cc45)cc23)c1 [Compound 425, N^1-(3-(2-(5-(5-Aminopyridin-3-yl)-1H-pyrazolo[3,4-b]pyridin-3-yl)-1H-indol-4-yl)-5-fluorophenyl)-N^2,N^2-dimethylethane-1,2-diamine]
pEC50 ([1]; Homo sapiens, Fibroblast, 96 h): 6.48
pEC50 (IL-6; Homo sapiens): 7.04

CCNCc1cncc(-c2cnc3[nH]nc(-c4cc5c(-c6cc(F)cc(NCCN(C)C)c6)cccc5[nH]4)c3c2)c1 [Compound 428, N^1-(3-(2-(5-(5-((Ethylamino)methyl)pyridin-3-yl)-1H-pyrazolo[3,4-b]pyridin-3-yl)-1H-indol-4-yl)-5-fluorophenyl)-N^2,N^2-dimethylethane-1,2-diamine]
pEC50 ([1]; Homo sapiens, Fibroblast, 96 h): 5.90
pEC50 (IL-6; Homo sapiens): 6.59

CC(C)Nc1cncc(-c2cnc3[nH]nc(-c4cc5c(-c6cc(F)cc(NCCN(C)C)c6)cccc5[nH]4)c3c2)c1 [Compound 434, N^1-(3-Fluoro-5-(2-(5-(5-(isopropylamino)pyridin-3-yl)-1H-pyrazolo[3,4-b]pyridin-3-yl)-1H-indol-4-yl)phenyl)-N^2,N^2-dimethylethane-1,2-diamine]
pEC50 ([1]; Homo sapiens, Fibroblast, 96 h): 5.84
pEC50 (IL-6; Homo sapiens): 6.16

CN(C)CCNc1cc(F)cc(-c2cccc3[nH]c(-c4n[nH]c5ncc(-c6cncc(CN7CCCCC7)c6)cc45)cc23)c1 [Compound 437, N^1-(3-Fluoro-5-(2-(5-(5-(piperidin-1-ylmethyl)pyridin-3-yl)-1H-pyrazolo[3,4-b]pyridin-3-yl)-1H-indol-4-yl)phenyl)-N^2,N^2-dimethylethane-1,2-diamine]
pEC50 ([1]; Homo sapiens, Fibroblast, 96 h): 5.26
pEC50 (IL-6; Homo sapiens): < 5.00
inhibition at 10 µM (IL-6; Homo sapiens): 43.2%

CN(C)CCNc1cc(F)cc(-c2cccc3[nH]c(-c4n[nH]c5ncc(-c6ccncc6)cc45)cc23)c1 [Compound 440]
pEC50 [1]: < 5.00
percent inhibition at 10 μM ([1]; at 10 μM, given for EC50 of >10 μM, TGF-β1, αSMA): 0%
pEC50 (IL-6): 7.82

CN(C)CCNc1cc(F)cc(-c2cccc3[nH]c(-c4n[nH]c5ncc(-c6cncc(NC(=O)C7CCC7)c6)cc45)cc23)c1 [Compound 443, N-(5-(3-(4-(3-((2-(Dimethylamino)ethyl)amino)-5-fluorophenyl)-1H-indol-2-yl)-1H-pyrazolo[3,4-b]pyridin-5-yl)pyridin-3-yl)cyclobutanecarboxamide]
pEC50 ([1]; Homo sapiens, Fibroblast, 96 h): 6.00
pEC50 (IL-6; Homo sapiens): < 5.00
inhibition at 10 µM (IL-6; Homo sapiens): 47.3%

CN(C)CCNc1cc(F)cc(-c2cccc3[nH]c(-c4n[nH]c5ncc(-c6cncnc6)cc45)cc23)c1 [Compound 449, N^1-(3-Fluoro-5-(2-(5-(pyrimidin-5-yl)-1H-pyrazolo[3,4-b]pyridin-3-yl)-1H-indol-4-yl)phenyl)-N^2,N^2-dimethylethane-1,2-diamine]
pEC50 ([1]; Homo sapiens, Fibroblast, 96 h): 5.94
pEC50 (IL-6; Homo sapiens): 8.15

CS(=O)(=O)NCc1cc(F)cc(-c2cccc3[nH]c(-c4n[nH]c5ncc(-c6cncc(N)c6)cc45)cc23)c1 [Compound 453, N-(3-(2-(5-(5-Aminopyridin-3-yl)-1H-pyrazolo[3,4-b]pyridin-3-yl)-1H-indol-4-yl)-5-fluorobenzyl)methanesulfonamide]
pEC50 ([1]; Homo sapiens, Fibroblast, 96 h): 6.43
pEC50 (IL-6; Homo sapiens): 6.80

Cc1ccncc1-c1cnc2[nH]nc(-c3cc4c(-c5cc(F)cc(CNS(C)(=O)=O)c5)cccc4[nH]3)c2c1 [Compound 455, N-(3-Fluoro-5-(2-(5-(4-methylpyridin-3-yl)-1H-pyrazolo[3,4-b]pyridin-3-yl)-1H-indol-4-yl)benzyl)methanesulfonamide]
pEC50 ([1]; Homo sapiens, Fibroblast, 96 h): < 5.00
inhibition at 10 µM [1, 2]: 43.9%
pEC50 (IL-6; Homo sapiens): < 5.00
inhibition at 10 µM (IL-6; Homo sapiens): 54.8%

CN(C)Cc1cncc(-c2cnc3[nH]nc(-c4cc5c(-c6cc(F)cc(CNS(C)(=O)=O)c6)cccc5[nH]4)c3c2)c1 [Compound 463, N-(3-(2-(5-(5-((Dimethylamino)methyl)pyridin-3-yl)-1H-pyrazolo[3,4-b]pyridin-3-yl)-1H-indol-4-yl)-5-fluorobenzyl)methane sulfonamide]
pEC50 ([1]; Homo sapiens, Fibroblast, 96 h): 5.69
pEC50 (IL-6; Homo sapiens): 6.35

CS(=O)(=O)NCc1cc(F)cc(-c2cccc3[nH]c(-c4n[nH]c5ncc(-c6ccccn6)cc45)cc23)c1 [Compound 478, N-(3-Fluoro-5-(2-(5-(pyridin-2-yl)-1H-pyrazolo[3,4-b]pyridin-3-yl)-1H-indol-4-yl)benzyl)methanesulfonamide]
pEC50 ([1]; Homo sapiens, Fibroblast, 96 h): 5.62
pEC50 (IL-6; Homo sapiens): 6.16

c1ccc(CNCc2cncc(-c3cnc4[nH]nc(-c5cc6ncccc6[nH]5)c4c3)c2)cc1 [Compound 502, 1-(5-(3-(1H-Pyrrolo[3,2-b]pyridin-2-yl)-1H-pyrazolo[3,4-b]pyridin-5-yl)pyridin-3-yl)-N-benzylmethanamine]
pEC50 ([1]; Homo sapiens, Fibroblast, 96 h): 5.51
pEC50 (IL-6; Homo sapiens): 5.22

FC1(F)CCN(Cc2cncc(-c3cnc4[nH]nc(-c5cc6ncccc6[nH]5)c4c3)c2)C1 [Compound 504, 5-(5-((3,3-Difluoropyrrolidin-1-yl)methyl)pyridin-3-yl)-3-(1H-pyrrolo[3,2-b]pyridin-2-yl)-1H-pyrazolo[3,4-b]pyridine]
pEC50 ([1]; Homo sapiens, Fibroblast, 96 h): < 5.00
inhibition at 10 µM [1, 2]: 14.8%
pEC50 (IL-6; Homo sapiens): 6.94

Fc1cccc(-c2cccc3[nH]c(-c4n[nH]c5ncc(-c6cncc(OCc7ccccc7)c6)cc45)cc23)c1 [Compound 520, 5-(5-(Benzyloxy)pyridin-3-yl)-3-(4-(3-fluorophenyl)-1H-indol-2-yl)-1H-pyrazolo[3,4-b]pyridine]
pEC50 ([1]; Homo sapiens, Fibroblast, 96 h): 5.01
pEC50 (IL-6; Homo sapiens): < 5.00
inhibition at 10 µM (IL-6; Homo sapiens): 31.3%

Fc1ccccc1-c1cccc2[nH]c(-c3n[nH]c4ncc(C5CCNCC5)cc34)cc12 [Compound 539, 3-(4-(2-Fluorophenyl)-1H-indol-2-yl)-5-(piperidin-4-yl)-1H-pyrazolo[3,4-b]pyridine]
pEC50 ([1]; Homo sapiens, Fibroblast, 96 h): 5.29
pEC50 (IL-6; Homo sapiens): 5.44

CN(C)CCOc1cncc(-c2cnc3[nH]nc(-c4cc5c(-c6cccnc6)cccc5[nH]4)c3c2)c1 [Compound 565, N,N-Dimethyl-2-((5-(3-(4-(pyridin-3-yl)-1H-indol-2-yl)-1H-pyrazolo[3,4-b]pyridin-5-yl)pyridin-3-yl)oxy)ethan-1-amine]
pEC50 ([1]; Homo sapiens, Fibroblast, 96 h): 5.71
pEC50 (IL-6; Homo sapiens): 5.70

O=C(CC1CCNCC1)Nc1cncc(-c2cnc3[nH]nc(-c4cc5c(-c6ccccn6)cccc5[nH]4)c3c2)c1 [Compound 595, 2-(Piperidin-4-yl)-N-(5-(3-(4-(pyridin-2-yl)-1H-indol-2-yl)-1H-pyrazolo[3,4-b]pyridin-5-yl)pyridin-3-yl)acetamide]
pEC50 ([1]; Homo sapiens, Fibroblast, 96 h): 5.25
pEC50 (IL-6; Homo sapiens): 6.61

Cc1ncc(-c2cnc3[nH]nc(-c4cc5ccccc5[nH]4)c3c2)n1C [Compound 655, 5-(1,2-Dimethyl-1H-imidazol-5-yl)-3-(1H-indol-2-yl)-1H-pyrazolo[3,4-b]pyridine]
pEC50 ([1]; Homo sapiens, Fibroblast, 96 h): 5.41
pEC50 (IL-6; Homo sapiens): 5.36
